Measured values: US12692274B2, “Tetrahydroisoquinoline derivatives for the treatment of red blood disorders and inflammatory diseases” (Sanofi, priority 2020, dated 2026)
pEC50, pIC50: −log10 of the molar value. “And” between values parts separate entries of the source, which are not always exact repeats. Identical values can stand only once. Like-named read-outs stand apart in the source and are kept apart here.

How the values were obtained:
[1] = the molecule shown is the open-chain precursor
[2] = system: NQO1 activation in BEAS-2B cells; test: BEAS-2B cellular MTT assay of NQO1 activation, 0% HSA; format: cell-based
Summary of the method: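 BEAS-2B cells grown in BEBM with BEGM SingleQuots (no GA-1000), kept below 70% confluence, seeded on collagen plates at a density giving 95-100% confluence after 48 h. Plates seeded in medium without HSA (0% HSA condition).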

[3] = system: NQO1 activation in BEAS-2B cells; test: BEAS-2B cellular MTT assay of NQO1 activation, 0.3% HSA; format: cell-based
Summary of the method: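 BEAS-2B cells (<70% confluent in culture, BEBM/SingleQuots without GA-1000) seeded in collagen plates with 0.3% or 0% HSA, reaching 95-100% confluency after 48 h at 37 °C, 5% CO2; MTT read-out.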

[4] = biological target: HIS-Keap1 full length / Biotin-Nrf2 (16-mer) (Homo sapiens, UniProt Q14145); test: biochemical
[5] = rcm bond, 22-membered ring, Grubbs catalyst (General procedure 7)
[6] = Homo sapiens, Serum Free W, read-out: BEAS EC50 (nM) Serum Free W
[7] = Serum Free W, read-out: BEAS EC50 (nM) Serum Free W
[8] = BEAS+ W, read-out: BEAS+ W EC50
[9] = Homo sapiens, BEAS+ W, read-out: BEAS+ W EC50
[10] = Homo sapiens, serum free, read-out: BEAS EC50 (nM) serum free
[11] = serum free, read-out: BEAS EC50 (nM) serum free
[12] = Homo sapiens, BEAS+, read-out: BEAS+ EC50

Chain of HIS-Keap1 full length / Biotin-Nrf2 (16-mer) (Q14145 whole entry): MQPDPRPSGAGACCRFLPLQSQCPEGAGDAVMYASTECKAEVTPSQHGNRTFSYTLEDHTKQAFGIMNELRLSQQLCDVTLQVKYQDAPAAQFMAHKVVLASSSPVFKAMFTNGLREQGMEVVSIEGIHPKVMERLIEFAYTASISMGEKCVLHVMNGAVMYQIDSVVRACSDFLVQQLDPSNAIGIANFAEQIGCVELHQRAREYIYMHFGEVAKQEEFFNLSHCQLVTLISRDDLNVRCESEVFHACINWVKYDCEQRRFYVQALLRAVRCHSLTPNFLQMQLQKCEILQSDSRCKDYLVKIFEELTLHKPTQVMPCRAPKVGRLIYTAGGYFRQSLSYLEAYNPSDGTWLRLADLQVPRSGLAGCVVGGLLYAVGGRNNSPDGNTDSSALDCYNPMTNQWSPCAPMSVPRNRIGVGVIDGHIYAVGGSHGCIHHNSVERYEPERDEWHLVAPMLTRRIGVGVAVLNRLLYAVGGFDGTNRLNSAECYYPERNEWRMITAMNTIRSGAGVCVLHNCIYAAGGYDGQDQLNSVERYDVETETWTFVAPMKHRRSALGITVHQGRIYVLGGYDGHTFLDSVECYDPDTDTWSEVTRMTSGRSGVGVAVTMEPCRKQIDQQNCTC

| Compound | pIC50 [4] | EC50 [2, 10] [nM] | EC50 [2, 11] | pEC50 ([3]; BEAS+, read-out: BEAS+ EC50) | pEC50 [3, 12] | IC50 [4] | other results |
| --- | --- | --- | --- | --- | --- | --- | --- |
| free amino acid (NH tetrahydroisoquinoline, CO2H benzoic acid) from deprotection of Mitsunobu di-ether of tert-butyl 7-(3-(benzyloxy)-1-(1-(3-(2-hydroxyethoxy)propyl)-4-methyl-1H-benzo[d][1,2,3]triazol-5-yl)-3-oxopropyl)-3,4-dihydroisoquinoline-2(1H)-carboxylate with tert-butyl 2,6-difluoro-4-hydroxybenzoate |  |  |  |  |  |  | ring closure, isolated yield ([1]; amide bond, 23-membered ring, HATU/Et3N): 30% |
| amide of methyl 3-(1-(but-3-en-1-yl)-1H-benzo[d][1,2,3]triazol-5-yl)-3-(1,2,3,4-tetrahydroisoquinolin-7-yl)propanoate with 4-(allyloxy)benzoic acid |  |  |  |  |  |  | ring closure, isolated yield [1, 5]: 47% |
| amide of rel-methyl (R)-3-(1-(hex-5-en-1-yl)-4-methyl-1H-benzo[d]imidazol-5-yl)-3-(1,2,3,4-tetrahydroisoquinolin-7-yl)propanoate with 4-vinylbenzoic acid |  |  |  |  |  |  | ring closure, isolated yield ([1]; rcm bond, 22-membered ring, Grubbs II (extra portion)): 27% |
| amide of methyl 3-(4-methyl-6-(pent-4-en-1-yloxy)pyridin-3-yl)-3-(1,2,3,4-tetrahydroisoquinolin-7-yl)propanoate with 4-vinylbenzoic acid |  |  |  |  |  |  | ring closure, isolated yield ([1]; rcm bond, 21-membered ring, Grubbs catalyst (General procedure 15)): 64% |
| amide of methyl 3-(4-methyl-1-(pent-4-en-1-yl)-1H-benzo[d][1,2,3]triazol-5-yl)-3-(1,2,3,4-tetrahydroisoquinolin-7-yl)propanoate with 1-methyl-5-vinyl-1H-indole-3-carboxylic acid |  |  |  |  |  |  | ring closure, isolated yield ([1]; rcm bond, 21-membered ring, Grubbs catalyst (General procedure 7)): 65% |
| amide of rel-methyl (S)-3-(4-methyl-1-(pent-4-en-1-yl)-1H-benzo[d][1,2,3]triazol-5-yl)-3-(1,2,3,4-tetrahydroisoquinolin-7-yl)propanoate with 4-allylbenzoic acid |  |  |  |  |  |  | ring closure, isolated yield [1, 5]: 99% |
| COc1cc2ccc1CCCCCn1nnc3c(C)c(cnc31)[C@H](CC(=O)O)c1ccc3c(c1)CN(CC3)C2=O [Compound 87] | 9.10 and 9.05 |  |  |  |  |  | EC50 [2, 6]: 13 nM; EC50 [2, 7]: 18.2 nM; pEC50 [3, 8]: 7.42; pEC50 [3, 9]: 7.39 |
| C[C@H](C(=O)O)[C@@H]1c2ccc3c(c2)CN(CC3)C(=O)c2ccc(cc2)OCCCCCn2nnc3cc1ccc32 [Compound 231] | 8.49 | 153 | 228 nM | 6.64 | 6.56 |  |  |
| Cc1c2ccc3c1nnn3CCCCCOc1ccc(cc1F)C(=O)N1CCc3ccc(cc3C1)C2CC(=O)O (stereo not drawn) [Compound 275] | 8.72 | 123 |  |  | 7.07 |  |  |
| Cc1cc2ncc1C(CC(=O)O)c1ccc3c(c1)CN(CC3)C(=O)c1c(F)cc(cc1F)CCCCCO2 (stereo not drawn) [Compound 161] |  | 1.4 | 0.7 nM and 1.1 nM | 8.22 and 8.12 and 8.28 | 8.11 | 2.5 nM and 2.3 nM and 1 nM (2×) |  |
| Cc1c2ccc3c1nnn3CCCCCCc1ccc(c3cccnc13)C(=O)N1CCc3ccc(cc3C1)[C@@H]2CC(=O)O [Compound 48] | 10.00 and 9.70 |  |  |  |  |  | EC50 [2, 6]: 12 nM; EC50 [2, 7]: 9.1 nM; pEC50 [3, 8]: 7.62; pEC50 [3, 9]: 7.58 |
| Cc1cc2ccc1C(=O)N1CCc3ccc(cc3C1)C(CC(=O)O)c1ccc3c(nnn3CCCCCC2)c1Cl (stereo not drawn) [Compound 171] | 8.60 | 1 | 1.6 nM | 8.27 | 8.08 |  |  |
| Cc1c2ccc3c1nnn3CCCCCCc1ccc3c(c1)nc(n3C)C(=O)N1CCc3ccc(cc3C1)C2CC(=O)O (stereo not drawn) [Compound 206] | 8.28 and 8.24 | 64 | 38.5 nM | 6.93 | 7.05 |  |  |
| Cc1c2ccc3c1nnn3CCCCCCc1ccc3nc(n(C)c3c1)C(=O)N1CCc3ccc(cc3C1)C2CC(=O)O (stereo not drawn) [Compound 192] | 8.15 and 8.17 | 75.6 | 63.7 nM | 6.90 | 6.94 |  |  |
| Cc1cc2ncc1C(CC(=O)O)c1ccc3c(c1)CN(CC3)C(=O)c1ccc(cc1)OCCCCO2 (stereo not drawn) [Compound 169] | 7.16 and 7.18 | 84.4 | 55.9 nM | 6.76 | 6.81 |  |  |
| Cc1c2ccc3c1nnn3CCCCCc1ccc(cc1OC(F)F)C(=O)N1CCc3ccc(cc3C1)[C@@H]2CC(=O)O [Compound 38] | 9.40 and 9.52 |  |  |  |  |  | EC50 [2, 6]: 4.8 nM; EC50 [2, 7]: 4.5 nM; pEC50 [3, 8]: 7.77; pEC50 [3, 9]: 7.82 |
| CC(C(=O)O)C1c2ccc3c(c2)CN(CC3)C(=O)c2ccc(cc2)OCCCCCn2nnc3cc1ccc32 (stereo not drawn) [Compound 325] | > 10.00 | 2.9 |  |  | 8.40 |  |  |
| Cc1c2cnc3c1nnn3CCCCCc1ccc(c(F)c1)C(=O)N1CCc3ccc(cc3C1)C2CC(=O)O (stereo not drawn) [Compound 137] | 9.52 | 1.9 | 1.8 nM | 8.55 | 8.72 |  |  |
| Cc1c2ccc3c1nnn3CCCCCc1ccc(cc1)C(=O)N1CCc3ccc(cc3C1)[C@H]2[C@H](C)C(=O)O [Compound 133] | 8.85 and 8.89 |  |  |  |  |  | EC50 [2, 6]: 16 nM; EC50 [2, 7]: 31 nM; pEC50 [3, 8]: 7.41; pEC50 [3, 9]: 7.40 |
| Cc1c2ccc3c1nnn3CCCCCCc1ccc(cc1OC(F)F)C(=O)N1CCc3ccc(cc3C1)[C@@H]2CC(=O)O [Compound 37] | 9.00 and 9.10 |  |  |  |  |  | EC50 [2, 6]: 18.1 nM; EC50 [2, 7]: 18.2 nM; pEC50 [3, 8]: 7.14; pEC50 [3, 9]: 7.00 |
| Cc1cc2ncc1[C@H](CC(=O)O)c1ccc3c(c1)CN(CC3)C(=O)c1ccc(cc1)COCCCO2 [Compound 78] | 8.12 and 8.22 |  |  |  |  |  | EC50 [2, 6]: 43 nM; EC50 [2, 7]: 59.3 nM; pEC50 [3, 8]: 6.97; pEC50 [3, 9]: 6.98 |
| Cc1c2cnc3c1nnn3CCCCCc1ccc3c(c1)cc(n3C)C(=O)N1CCc3ccc(cc3C1)C2CC(=O)O (stereo not drawn) [Compound 143] | 9.15 |  |  |  |  |  | EC50 [2, 6]: 2.2 nM; EC50 [2, 7]: 2.6 nM; pEC50 [3, 8]: 7.97; pEC50 [3, 9]: 7.99 |
| CC(C)(C(=O)O)[C@@H]1c2ccc3c(c2)CN(CC3)C(=O)c2c(F)cc(cc2F)OCCCCCCn2nnc3cc1ccc32 [Compound 236] | 7.29 and 7.35 | 62.7 | 50.3 nM and 82.1 nM and 84.7 nM | 6.61 and 6.66 and 6.72 | 6.54 |  |  |
| O=C(O)CC1c2ccc3c(c2)CN(CC3)C(=O)c2ccc(cc2)CCCCCCn2nnc3cc1ccc32 (stereo not drawn) [Compound 280] |  | 108 |  |  | 6.94 | 2.3 nM (2×) and 2.8 nM (2×) |  |
